Laboratory results reported in ChEMBL document CHEMBL2073918, “Effect of modulators on the ATPase activity and vanadate nucleotide trapping of human P-glycoprotein” (Biochem Pharmacol, 1998).

Experiments:
[1] = target: T1, ATP-dependent translocase ABCB1 (Homo sapiens, UniProt P08183); assay: TP_TRANSPORTER: inhibition of ATPase activity (Verapamil) in membranes from CEM/VLB100 cells; assay type: functional, cell membranes, Membrane
[2] = target: T1, ATP-dependent translocase ABCB1; assay: TP_TRANSPORTER: ATP hydrolysis in membranes from CEM/VLB100 cells; assay type: functional, cell membranes, Membrane

T1 sequence (P08183 whole entry): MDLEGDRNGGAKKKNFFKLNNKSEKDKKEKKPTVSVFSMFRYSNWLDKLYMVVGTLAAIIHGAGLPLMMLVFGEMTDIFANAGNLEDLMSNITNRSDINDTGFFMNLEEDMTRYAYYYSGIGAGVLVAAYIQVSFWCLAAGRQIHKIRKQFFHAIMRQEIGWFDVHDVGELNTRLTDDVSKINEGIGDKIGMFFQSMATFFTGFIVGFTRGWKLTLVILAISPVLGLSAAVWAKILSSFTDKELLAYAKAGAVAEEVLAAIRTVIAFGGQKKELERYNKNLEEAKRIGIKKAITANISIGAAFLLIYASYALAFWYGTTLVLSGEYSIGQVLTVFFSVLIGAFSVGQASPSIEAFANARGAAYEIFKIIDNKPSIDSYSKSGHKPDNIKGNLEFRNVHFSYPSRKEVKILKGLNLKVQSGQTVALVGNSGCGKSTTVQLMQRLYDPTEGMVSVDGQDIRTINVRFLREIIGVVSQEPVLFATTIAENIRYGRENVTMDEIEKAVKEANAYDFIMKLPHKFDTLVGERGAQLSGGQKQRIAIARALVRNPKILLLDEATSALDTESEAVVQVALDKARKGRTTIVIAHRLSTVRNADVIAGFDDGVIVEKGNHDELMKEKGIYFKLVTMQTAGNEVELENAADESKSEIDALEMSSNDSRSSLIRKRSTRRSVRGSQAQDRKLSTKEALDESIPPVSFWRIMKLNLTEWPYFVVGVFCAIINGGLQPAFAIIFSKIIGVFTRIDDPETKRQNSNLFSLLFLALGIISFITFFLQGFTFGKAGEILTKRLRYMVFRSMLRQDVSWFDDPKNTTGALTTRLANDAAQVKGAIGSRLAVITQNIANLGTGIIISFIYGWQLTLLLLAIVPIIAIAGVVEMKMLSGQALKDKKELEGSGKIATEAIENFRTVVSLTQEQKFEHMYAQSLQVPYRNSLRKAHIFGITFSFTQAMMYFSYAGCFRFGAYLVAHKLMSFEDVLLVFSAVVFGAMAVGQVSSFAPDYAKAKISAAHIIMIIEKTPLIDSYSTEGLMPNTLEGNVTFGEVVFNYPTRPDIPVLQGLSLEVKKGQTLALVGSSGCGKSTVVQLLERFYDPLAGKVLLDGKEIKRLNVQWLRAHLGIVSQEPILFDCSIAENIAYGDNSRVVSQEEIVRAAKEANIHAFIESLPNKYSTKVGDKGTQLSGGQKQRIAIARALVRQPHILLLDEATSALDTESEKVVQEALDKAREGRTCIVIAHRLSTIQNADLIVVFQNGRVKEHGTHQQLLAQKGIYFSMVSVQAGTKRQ

Ki [1] [nM] | Compound | Activity [2]
2100 | COC(=O)[C@@H]1C2CC3c4[nH]c5ccccc5c4CCN3CC2CC[C@@H]1OC(=O)c1cc(OC)c(OC)c(OC)c1 (some centres not stated) [TRIMETHOXYBENZOYLYOHIMBINE] | 
 | CCC12C=CCN3CC[C@@]4(c5ccc(OC)cc5N(C)[C@H]4[C@@](O)(C(=O)OC)[C@@H]1OC(C)=O)[C@@H]32 (some centres not stated) [VINDOLINE] | is not a substrate [-]
